Measurements: patent publication US20230346272A1 (priority 2021, published 2023)

test: Differential Pulse Voltammetry (DPV) with microneedle sensor array, oxycodone and metabolites (FIG. 10); format: physicochemical; settings: applied voltages from 0 to 1.2V

| SMILES | current peak (DPV) | voltage of the current peak (DPV) |
| --- | --- | --- |
| COc1ccc2c3c1O[C@H]1C(=O)CC[C@@]4(O)[C@@H](C2)N(C)CC[C@]314 [oxycodone] | about 100 μA | about 0.75 V |
| CN1CC[C@]23c4c5ccc(O)c4O[C@H]2C(=O)CC[C@@]3(O)[C@H]1C5 [oxymorphone] | about 30 μA | about 0.45 V |
| COc1ccc2c3c1O[C@H]1C(=O)CC[C@@]4(O)[C@@H](C2)NCC[C@]314 [noroxycodone] | about 165 μA | about 0.95 V |
